Where only a bound is given, the exact number is not on record here.

The source of these data is US10584132B2, “SHMT inhibitors” (The Trustees of Princeton University, priority 2016, dated 2020).

One data set can be described thus: LogP Value. Format: physicochemical.
In another data set the test system is HCT-116 WT cells. Description: Cell growth assay (resazurin), HCT-116 wild type, with or without formate. Format: cell-based, human. The following applies: for rescue of effects on cell growth by addition of formate: HCT-116, formate. The protocol: (§1) The described cell lines for Examples 8 and 9 are cultured in 96-well plates in Dulbecco's modified eagle media (DMEM) without pyruvate (CELLGRO) with 10% dialysed fetal bovine serum (Invitrogen) in 5% CO2 at 37° C. Approximately 2,500 cells are plated in each well in 90 uL of media. After 24 hours cells are treated with various concentrations of inhibitor (time=0 hours), with or without formate. Growth was assessed at multiple time points (time=0, 24, 48, 72 hours) through measurement of fluorescence at 595 nm (excitation at 535 nm) on a BioTek micro titer plate reader after incubation with resazurin (0.01 mg/mL for 1.5 hours). IC50 curves are generated from percent inhibition of growth at 72 hours.

The subject of the next data set is HCT-116 ΔSHMT2 cells. Description: Cell growth assay, HCT-116 SHMT2 deletion (knock-out) cells. The format is cell-based, human. How it is done:
as §1
Clonal deletion cell lines of SHMT1, SHMT2, and SHMT1/2 were generated from the human colorectal carcinoma cell line HCT-116. Paired Cas9 nickase (Cas9n) containing constructs that encoded single-guide RNA sequences targeting SHMT1 or 2 were transiently transfected into cells, and mutant colonies from single clones were picked as described in Ducker et al., (2016) Reversal of Cytosolic One-Carbon Flux Compensates for Loss of the Mitochondrial Folate Pathway, Cell Metab 23, 1140-1153. SHMT1 deletion had no effect on cell growth either in cell culture or as subcutaneous xenografts in nude mice. In contrast, SHMT2 deletion cells grew slower in culture and as xenografts (FIG. 8A).

A further data set is described as follows: Liver microsome assay. Format: in vitro ADME. The settings on record: pooled male mouse liver microsomes, 2 μM. How it is done:
The following master solution was prepared before compound addition:
Two separate experiments were performed as follows: a) With Cofactors (NADPH and UDPGA): 40 μL of 10 mM NADPH and 40 μL of 20 mM UDPGA were added to the incubations. The final concentrations of microsomes, NADPH and UDPGA were 0.5 mg/mL, 1 mM and 2 mM, respectively. b) Without Cofactors (NADPH and UDPGA): 10 μL of 20 mg/mL liver microsomes and 80 μL of ultra-pure water were added to the incubations. The final concentration of microsomes was 0.5 mg/mL. The mixture was pre-warmed at 37° C. for 5 minutes.
The reaction was started with the addition of 4 μL of 200 μM control compound or test compound solution. Verapamil was used as positive control in this study. The final concentration of test compound or control compound was 2 μM. The incubation solution was incubated in water bath at 37° C. Aliquots of 50 μL were taken from the reaction solution at 0.5, 5, 15, 30, 45 and 60 minutes. The reaction was stopped by the addition of 5 volumes of cold acetonitrile with IS (100 nM alprazolam, 200 nM caffeine and 100 nM tolbutamide). Samples were centrifuged at 3,220 g for 40 minutes. Aliquot of 100 μL of the supernatant was mixed with 100 μL of ultra-pure H2O and then used for LC-MS/MS analysis. The in vitro half-life (in vitro t1/2) was determined from the slope value of the LC-MS signal of the test compound.

The next data set deals with human SHMT2 (Homo sapiens (Human), UniProt P34897). The data set is described as follows: SHMT2 in vitro enzymatic assay (coupled with excess MTHFD2, NADH absorption at 340 nm). The format is biochemical.
Sequence of human SHMT2 (P34897 30-504): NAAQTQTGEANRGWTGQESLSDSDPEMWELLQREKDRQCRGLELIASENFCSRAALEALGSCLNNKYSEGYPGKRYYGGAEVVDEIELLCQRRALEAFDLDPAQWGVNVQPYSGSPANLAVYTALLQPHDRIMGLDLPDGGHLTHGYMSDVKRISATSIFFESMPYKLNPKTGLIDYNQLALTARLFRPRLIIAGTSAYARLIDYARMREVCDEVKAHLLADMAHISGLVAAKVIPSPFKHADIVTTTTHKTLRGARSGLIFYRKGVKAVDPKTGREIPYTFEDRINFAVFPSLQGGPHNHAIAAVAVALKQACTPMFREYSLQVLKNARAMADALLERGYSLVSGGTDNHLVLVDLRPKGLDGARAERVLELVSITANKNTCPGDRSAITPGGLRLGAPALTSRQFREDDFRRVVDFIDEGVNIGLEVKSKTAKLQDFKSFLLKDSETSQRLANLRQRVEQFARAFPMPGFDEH
The target of a further data set is human SHMT1 (Homo sapiens (Human), UniProt P34896). The data set is described as follows: SHMT1 in vitro enzymatic assay (coupled with excess MTHFD2, NADH absorption at 340 nm). Format: biochemical.
Sequence of human SHMT1 (P34896 whole entry): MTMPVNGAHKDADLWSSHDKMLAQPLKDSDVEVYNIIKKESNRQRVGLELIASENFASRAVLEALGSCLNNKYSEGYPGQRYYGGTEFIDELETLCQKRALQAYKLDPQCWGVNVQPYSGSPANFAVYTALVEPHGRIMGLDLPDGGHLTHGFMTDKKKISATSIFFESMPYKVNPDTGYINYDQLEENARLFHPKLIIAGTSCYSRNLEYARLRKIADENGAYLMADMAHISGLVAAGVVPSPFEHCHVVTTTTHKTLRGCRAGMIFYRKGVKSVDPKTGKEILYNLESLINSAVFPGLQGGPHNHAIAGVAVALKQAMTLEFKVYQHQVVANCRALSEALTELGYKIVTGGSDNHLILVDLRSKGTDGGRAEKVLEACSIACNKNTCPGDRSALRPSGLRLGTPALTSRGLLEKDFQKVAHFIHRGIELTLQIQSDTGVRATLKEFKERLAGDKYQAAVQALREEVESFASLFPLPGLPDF
Data set [1] relates to Su-DHL-4 cells. The data set is described as follows: Apoptosis by flow cytometry (Annexin V surface staining), Su-DHL-4. Format: cell-based, human. The following applies: for apoptotic fraction of cells: 24 hours. The text has this:
Apoptosis was enhanced by co-treatment with formate. In contrast, as expected, formate rescued Jurkat E6-1 leukemia cells from apoptosis (FIG. 11C). Without wishing to be bound by theory, it is hypothesized that the failure of formate to rescue growth in the DLBCL cell lines is due to a requirement for both glycine and 1C units made by SHMT in these cells. When glycine is limiting, formate can enhance the cytotoxicity of SHMT inhibition. […] Mechanistically, by supplying 5,10-methylene-THF, formate may drives residual SHMT enzymatic function in the […] direction.
In contrast, cell growth is further decreased in Su-DHL4 cells by addition of formate. This can be further exacerbated by removal of glycine from the media. […] Using flow cytometry, apoptosis of Su-DHL4 cells were studied with AnnexinV surface staining (FIGS. 12D and 12E).
In general terms: A flow cytometer gives signals particle by particle.

In the next data set the test system is 8988T cells. Description: Growth of pancreatic cancer cell line 8988T. The format is cell-based, human.
The test system of data set [2] is Su-DHL-4 cells. The data set is described as follows: Growth of Su-DHL-4 cells in RPMI. Format: cell-based, human. The settings on record: for cell growth (or death) over 48 h: Su-DHL-4, 5 μM. The protocol:
Cells were stained with propidium iodide and FITC conjugated Annexin V. 10,000 events shown. […] All conditions included at least normal media glycine (10 mg/L) (mean±SD, n=3).
Co-culture with 1 mM formate restores nucleotide levels selectively in Jurkat cells (mean±SD, n=3-6). […] Note the low uptake in Su-DHL-4 cells (gly=glycine, GSH=glutathione) (mean±SD, n=3). […] The SHMT reaction makes two products, 5,10-methyleneTHF and glycine. When SHMT is inhibited, exogenous formate can be incorporated into the 1C cycle whereas in B-cells poor glycine uptake limits the ability of extracellular glycine to rescue. Strategies that further stress glycine availability augment the efficacy of SHMT inhibition.

Protocol for human SHMT1: (§2) For the SHMT1 and SHMT2 in vitro enzymatic assays, the rate of 5,10-methylene tetrahydrofolate formation catalyzed by SHMT1/2 was indirectly evaluated by coupling with excess MTHFD2, which converts NAD+ to NADH allowing for reaction monitoring by absorption at 340 nm. […] Inhibition of initial reaction velocity was determined by adding various inhibitors at different concentrations and monitored as described. IC50 may be calculated based on this assay.
Protocol for human SHMT2: as §2

For orientation: logP means a log measure of how a compound divides between an organic and an aqueous phase. Turning to `Cc1n[nH]c2c1C(c1cc(C#CCCC(=O)O)cc(C(F)(F)F)c1)(C(C)C)C(C#N)=C(N)O2` (centres unmarked) [Compound 4], the logP in “LogP Value” turned out to be 3.56. On the same count and under the same terms, the same measure for `Cc1n[nH]c2c1C(c1cc(C#CCCCN)cc(C(F)(F)F)c1)(C(C)C)C(C#N)=C(N)O2` (centres unmarked) [Compound 8]: 2.72; for `Cc1n[nH]c2c1C(c1cc(C#CCCC(N)=O)cc(C(F)(F)F)c1)(C(C)C)C(C#N)=C(N)O2` (centres unmarked) [Compound 11]: 3.22. Regarding `Cc1n[nH]c2c1C(c1cc(C#CCCCO)cc(C(F)(F)F)c1)(C(C)C)C(C#N)=C(N)O2` (centres unmarked) [Compound 61, 6-amino-4-(3-(5-hydroxypent-1-yn-1-yl)-5-(trifluoromethyl)phenyl)-4-isopropyl-3-methyl-1,4-dihydropyrano[2,3-c]pyrazole-5-carbonitrile], the “inhibition of growth (proliferation) of HCT116 cells” value with HCT-116 WT cells (native HCT116) is on record as “inhibited growth”. The “inhibition of growth of SHMT2 knock-out HCT116 cells versus native” value in the data set on HCT-116 ΔSHMT2 cells is recorded as “increased potency”. The molecule `Cc1n[nH]c2c1C(c1cc(C#N)cc(C#CCCC(=O)O)c1)(C(C)C)C(C#N)=C(N)O2` (centres unmarked) [Compound 68] registered a logP in “LogP Value” of 2.37. Same read-out and setting: the same measure for `Cc1n[nH]c2c1C(c1cc(C#CCCC(=O)N[C@@H](CCC(=O)O)C(=O)O)cc(C(F)(F)F)c1)(C(C)C)C(C#N)=C(N)O2` (some centres unmarked) [Compound 69]: 2.49; for `Cc1n[nH]c2c1C(c1cc(C#N)cc(C#CCCCO)c1)(C(C)C)C(C#N)=C(N)O2` (centres unmarked) [Compound 71]: 2.89. For the molecule `Cc1n[nH]c2c1C(c1cc(C#CCCCO)cc(CO)c1)(C(C)C)C(C#N)=C(N)O2` (centres unmarked) [Compound 74], in the data set “Liver microsome assay”, the “CLint (replicate 2)” value amounted to 67.96 μL/min/mg protein. In general, IC50 refers to the concentration at which inhibition is half-maximal. Higher therefore signals a need for much substance. Regarding `Cc1n[nH]c2c1C(c1cccc(Cl)c1)(C1CCC1)C(C#N)=C(N)O2` (centres unmarked) [HK-3], 1190 nM corresponded to half-maximal inhibition on human SHMT2 (IC50). Same read-out and setting: in the case of `COc1cccc(C2(C(C)C)C(C#N)=C(N)Oc3[nH]nc(C)c32)c1` (centres unmarked) [HK-6] it was 4580 nM. On human SHMT2, `Cc1n[nH]c2c1C(c1cccc(Cl)c1)(C(C)C)C(C#N)=C(N)O2` (centres unmarked) [HK-7] yielded an IC50 of 400 nM.

With `COc1cc(Cl)cc(C2(C3CCC3)C(C#N)=C(N)Oc3[nH]nc(C)c32)c1` (centres unmarked) [HK-9], half-maximal inhibition against human SHMT2 (IC50) was put at 3460 nM. As to `Cc1n[nH]c2c1C(c1cc(Cl)cc(Cl)c1)(C1CCC1)C(C#N)=C(N)O2` (centres unmarked) [HK-10], the IC50 stood at 593 nM against human SHMT1 and 1190 nM against human SHMT2. Molecule `Cc1n[nH]c2c1C(c1cc(Cl)cc(C(F)(F)F)c1)(C1CCC1)C(C#N)=C(N)O2` (centres unmarked) [HK-11] registered an IC50 at human SHMT2 of 100 nM. On to `Cc1n[nH]c2c1C(c1cc(C(F)(F)F)cc(C(F)(F)F)c1)(C1CCC1)C(C#N)=C(N)O2` (centres unmarked) [HK-12], for which the values for the IC50 against human SHMT1 and against human SHMT2 were 206 nM and 168 nM, respectively. On to `COc1cc(Cl)cc(C2(C(C)C)C(C#N)=C(N)Oc3[nH]nc(C)c32)c1` (centres unmarked) [HK-13], for which the IC50 at human SHMT2 was found to be 500 nM.

As to `Cc1n[nH]c2c1C(c1cc(Cl)cc(Cl)c1)(C(C)C)C(C#N)=C(N)O2` (centres unmarked) [HK-14], the results for the IC50 on human SHMT1 and at human SHMT2 were 67 nM and 131 nM, respectively. For `Cc1n[nH]c2c1C(c1cc(Cl)cc(C(F)(F)F)c1)(C(C)C)C(C#N)=C(N)O2` (centres unmarked) [HK-15], in that order: 20 nM and 35 nM. With `Cc1n[nH]c2c1C(c1cc(N3CCCC3)cc(C(F)(F)F)c1)(C(C)C)C(C#N)=C(N)O2` (centres unmarked) [HK-X1], the IC50 stood at 13 nM against human SHMT1 and 66 nM against human SHMT2. In the data set on HCT-116 WT cells, the “rescue of effects on cell growth by addition of formate” value is “rescued”. By IC70 is commonly meant the concentration needed for an effect of 70%. The low end stands for greater potency, the high end for weaker potency. As for `Cc1n[nH]c2c1C(c1cc(CO)cc(-c3ccccc3)c1)(C(C)C)C(C#N)=C(N)O2` (centres unmarked) [HK-X2], the “rescue of effects on cell growth by addition of formate” value in the data set on HCT-116 WT cells is reported as “rescued”. The “apoptotic fraction of cells” value is recorded as 8% in the data set on Su-DHL-4 cells [1] (Su-DHL4, inhibitor alone) and 15% in the data set with Su-DHL-4 cells [1] (Su-DHL4, inhibitor in the presence of formate). The “apoptosis measured by Annexin V surface staining” value is “enhanced” in the data set with Su-DHL-4 cells [1] (Su-DHL-4, co-treatment with formate) and “induced apoptosis” in the data set with Su-DHL-4 cells [1] (Su-DHL-4, inhibitor alone). Besides, in the data set on 8988T cells, the “concentration that impairs cell growth” value is given as under 100 nM. In addition, in the data set with Su-DHL-4 cells [2] (SU-DHL4, RPMI), the IC70 stood at 5000 nM. The “cell growth (or death) over 48 h” value is recorded as “fully cytostatic” in the data set on Su-DHL-4 cells [2] (formate (1 mM) added); “significant cell death” with Su-DHL-4 cells [2] (formate added and glycine removed).
